Reference: patent US8492395B2, “7-substituted quinazolinone compounds and compositions comprising the same” (Celgene Corporation, priority 2007, dated 2013)

Experiments:
[1] = system: Namalwa AG4 cells; assay: Cell proliferation assay (3H-thymidine incorporation); type: cell-based; conditions: one collective range stated for the tested compounds, read-out: IC50 values for inhibiting proliferation of Namalwa AG4 cells
Protocol: 5.48.3 Cell Proliferation Assay
Cell lines Namalwa, MUTZ-5, and UT-7 are obtained from the Deutsche Sammlung von Mikroorganismen und Zellkulturen GmbH (Braunschweig, Germany). The cell line KG-1 is obtained from the American Type Culture Collection (Manassas, Va., USA). Cell proliferation as indicated by ^3H-thymidine incorporation is measured in all cell lines as follows.
Cells are plated in 96-well plates at 6000 cells per well in media. The cells are pre-treated with compounds at about 100, 10, 1, 0.1, 0.01, 0.001, 0.0001 and 0 μM in a final concentration of about 0.25% DMSO in triplicate at 37° C. in a humidified incubator at 5% CO2 for 72 hours. One microcurie of 3H-thymidine (Amersham) is then added to each well, and cells are incubated again at 37° C. in a humidified incubator at 5% CO2 for 6 hours. The cells are harvested onto UniFilter GF/C filter plates (Perkin Elmer) using a cell harvester (Tomtec), and the plates are allowed to dry overnight. Microscint 20 (Packard) (25 μl/well) is added, and plates are analyzed in TopCount NXT (Packard). Each well is counted for one minute. Percent inhibition of cell proliferation is calculated by averaging all triplicates and normalizing to the DMSO control (0% inhibition). Each compound is tested in each cell line in three separate experiments. Final IC50s are calculated using non-linear regression, sigmoidal dose-response, constraining the top to 100% and bottom to 0%, allowing variable slope. (GraphPad Prism v3.02).
Abilities of certain compounds for inhibiting proliferation of Namalwa AG4 cells were determined using procedures substantially similar to those described in Section 5.48.3, above.

With `Cc1nc2ccc(CNC(=O)Nc3ccc(Cl)cc3)cc2c(=O)n1C1CCC(=O)NC1=O` (stereo not shown) [1-(4-chloro-phenyl)-3-[3-(2,6-dioxo-piperidin-3-yl)-2-methyl-4-oxo-3,4-dihydro-quinazolin-6-ylmethyl]-urea] the melting point was 225 to 227 °C and the IC50 [1] was 0.01 to 5.5 µM.
With `Cc1nc2c(Cl)cccc2c(=O)n1C1CCC(=O)NC1=O` (stereo not shown) [Example 5.40, 3-(8-chloro-2-methyl-4-oxo-4H-quinazolin-3-yl)-piperidine-2,6-dione] the melting point was 290 to 292 °C.
For `Cc1nc2c(Cl)cc(Cl)cc2c(=O)n1C1CCC(=O)NC1=O` (stereo not shown) [Example 5.46, 3-(6,8-dichloro-2-methyl-4-oxo-4H-quinazolin-3-yl)-piperidine-2,6-dione], the melting point was 238 to 240 °C.
In the case of `Cc1ccc2c(=O)n(C3CCC(=O)NC3=O)cnc2c1` (stereo not shown) [Example 5.34, 3-(7-methyl-4-oxo-4H-quinazolin-3-yl)-piperidine-2,6-dione], the melting point is reported as 313 to 315 °C.
`Cc1nc2c(C(F)(F)F)cccc2c(=O)n1C1CCC(=O)NC1=O` (stereo not shown) [3-(2-methyl-4-oxo-8-trifluoromethyl-4H-quinazolin-3-yl)-piperidine-2,6-dione] gave a melting point of 351 to 353 °C.
Work on `Cc1nc2ccc(F)cc2c(=O)n1C1CCC(=O)NC1=O` (stereo not shown) [Example 5.3, 3-(6-fluoro-2-methyl-4-oxo-4H-quinazolin-3-yl)-piperidine-2,6-dione] yielded a melting point of 273 to 275 °C.
For `Cc1ccc(NC(=O)NCc2ccc3nc(C)n(C4CCC(=O)NC4=O)c(=O)c3c2)cc1Cl` (stereo not shown) [1-(3-chloro-4-methyl-phenyl)-3-[3-(2,6-dioxo-piperidin-3-yl)-2-methyl-4-oxo-3,4-dihydro-quinazolin-6-ylmethyl]-urea], the melting point was 186 to 188 °C and the IC50 [1] was 0.01 to 5.5 µM.
For `Cc1nc2ccc(CNC(=O)c3ccc(Cl)c(Cl)c3)cc2c(=O)n1C1CCC(=O)NC1=O` (stereo not shown) [3,4-dichloro-N-[3-(2,6-dioxo-piperidin-3-yl)-2-methyl-4-oxo-3,4-dihydro-quinazolin-6-ylmethyl]-benzamide], the IC50 [1] was 0.01 to 5.5 µM.
Compound `Cc1nc2cc(C(F)(F)F)ccc2c(=O)n1C1CCC(=O)NC1=O` (stereo not shown) [Example 5.32, 3-(2-methyl-4-oxo-7-trifluoromethyl-4H-quinazolin-3-yl)-piperidine-2,6-dione] has a melting point of 277 to 279 °C.
With `Cc1nc2ccc(CNC(=O)c3cccc(C(F)(F)F)c3)cc2c(=O)n1C1CCC(=O)NC1=O` (stereo not shown) [N-[3-(2,6-dioxo-piperidin-3-yl)-2-methyl-4-oxo-3,4-dihydro-quinazolin-6-ylmethyl]-3-trifluoromethyl-benzamide] the melting point was 220 to 222 °C and the IC50 [1] was 0.01 to 5.5 µM.
Work on `Cc1cccc2c(=O)n(C3CCC(=O)NC3=O)cnc12` (stereo not shown) [Example 5.44, 3-(8-methyl-4-oxo-4H-quinazolin-3-yl)-piperidine-2,6-dione] yielded a melting point of 290 to 292 °C.
For `Cc1ccc2c(=O)n(C3CCC(=O)NC3=O)c(C)nc2c1` (stereo not shown) [3-(2,7-dimethyl-4-oxo-4H-quinazolin-3-yl)-piperidine-2,6-dione], the melting point was 305 °C (dec.).
Work on `Cc1ccc2ncn(C3CCC(=O)NC3=O)c(=O)c2c1` (stereo not shown) [Example 5.9, 3-(6-methyl-4-oxo-4H-quinazolin-3-yl)-piperidine-2,6-dione] yielded a melting point of 285 to 287 °C.
With `COc1cc2nc(C)n(C3CCC(=O)NC3=O)c(=O)c2cc1OC` (stereo not shown) [3-(6,7-dimethoxy-2-methyl-4-oxo-4H-quinazolin-3-yl)-piperidine-2,6-dione] the melting point was 325 °C (dec.).
`Cc1nc2ccc(CNC(=O)OC(C)(C)C)cc2c(=O)n1C1CCC(=O)NC1=O` (stereo not shown) [Example 5.11, [3-(2,6-dioxo-piperidin-3-yl)-2-methyl-4-oxo-3,4-dihydro-quinazolin-6-ylmethyl]-carbamic acid tert-butyl ester] gave a melting point of 212.5 to 214.5 °C.
Work on `Cc1nc2cc(CN)ccc2c(=O)n1C1CCC(=O)NC1=O.Cl` (stereo not shown) yielded a melting point of 313 to 315 °C.
Compound `Cc1nc2ccc(CN)cc2c(=O)n1C1CCC(=O)NC1=O.Cl` (stereo not shown) has a melting point of 299 to 301 °C.
With `Cc1nc2ccc(Cl)cc2c(=O)n1C1CCC(=O)NC1=O` (stereo not shown) [Example 5.4, 3-(6-chloro-2-methyl-4-oxo-4H-quinazolin-3-yl)-piperidine-2,6-dione] the melting point was 276 to 278 °C.
`O=C1CCC(n2cnc3cc(F)ccc3c2=O)C(=O)N1` (stereo not shown) [Example 5.33, 3-(7-fluoro-4-oxo-4H-quinazolin-3-yl)-piperidine-2,6-dione] gave a melting point of 296 to 298 °C.
`Cc1nc2cc(CNC(=O)OC(C)(C)C)ccc2c(=O)n1C1CCC(=O)NC1=O` (stereo not shown) [Example 5.36, [3-(2,6-dioxo-piperidin-3-yl)-2-methyl-4-oxo-3,4-dihydro-quinazolin-7-ylmethyl]-carbamic acid tert-butyl ester] gave a melting point of 240 to 242 °C.
Work on `Cc1nc2c(Br)cccc2c(=O)n1C1CCC(=O)NC1=O` (stereo not shown) [3-(8-bromo-2-methyl-4-oxo-4H-quinazolin-3-yl)-piperidine-2,6-dione] yielded a melting point of 307 to 309 °C.
`Cc1nc2ccc(CNC(=O)Cc3ccc(Cl)cc3)cc2c(=O)n1C1CCC(=O)NC1=O` (stereo not shown) [2-(4-chloro-phenyl)-N-[3-(2,6-dioxo-piperidin-3-yl)-2-methyl-4-oxo-3,4-dihydro-quinazolin-6-ylmethyl]-acetamide] gave a melting point of 229.5 to 231.5 °C and an IC50 [1] of 0.01 to 5.5 µM.
For `Cc1cccc2c(=O)n(C3CCC(=O)NC3=O)c(C)nc12` (stereo not shown) [3-(2,8-dimethyl-4-oxo-4H-quinazolin-3-yl)-piperidine-2,6-dione], the melting point was 296 to 298 °C.
Compound `Cc1nc2ccc(CNC(=O)c3ccc(C(F)(F)F)cc3)cc2c(=O)n1C1CCC(=O)NC1=O` (stereo not shown) [N-[3-(2,6-dioxo-piperidin-3-yl)-2-methyl-4-oxo-3,4-dihydro-quinazolin-6-ylmethyl]-4-trifluoromethyl-benzamide] has a melting point of 221 to 223 °C and an IC50 [1] of 0.01 to 5.5 µM.
For `Cc1ccc2nc(C)n(C3CCC(=O)NC3=O)c(=O)c2c1` (stereo not shown) [Example 5.1, 3-(2,6-dimethyl-4-oxo-4H-quinazolin-3-yl)-piperidine-2,6-dione], the melting point was 270 to 272 °C.
In the case of `Cc1cccc(NC(=O)NCc2ccc3nc(C)n(C4CCC(=O)NC4=O)c(=O)c3c2)c1` (stereo not shown) [1-[3-(2,6-dioxo-piperidin-3-yl)-2-methyl-4-oxo-3,4-dihydro-quinazolin-6-ylmethyl]-3-m-tolyl-urea], the melting point is reported as 200 to 202 °C and the IC50 [1] is reported as 0.01 to 5.5 µM.
Work on `Cc1nc2ccc(CNC(=O)N(C)C)cc2c(=O)n1C1CCC(=O)NC1=O` (stereo not shown) [Example 5.15, 3-[3-(2,6-dioxo-piperidin-3-yl)-2-methyl-4-oxo-3,4-dihydro-quinazolin-6-ylmethyl]-1,1-dimethyl-urea] yielded a melting point of 264 to 268 °C.
Work on `Cc1nc2ccc(CNC(=O)C3CC3)cc2c(=O)n1C1CCC(=O)NC1=O` (stereo not shown) [cyclopropanecarboxylic acid [3-(2,6-dioxo-piperidin-3-yl)-2-methyl-4-oxo-3,4-dihydro-quinazolin-6-ylmethyl]-amide] yielded a melting point of 281 to 283 °C.
For `Cc1nc2ccc(CNC(=O)c3ccc(SC(F)(F)F)cc3)cc2c(=O)n1C1CCC(=O)NC1=O` (stereo not shown) [N-[3-(2,6-dioxo-piperidin-3-yl)-2-methyl-4-oxo-3,4-dihydro-quinazolin-6-ylmethyl]-4-trifluoromethyl-sulfanyl-benzamide], the melting point was 169 to 171 °C and the IC50 [1] was 0.01 to 5.5 µM.
For `Cc1nc2ccc(CNC(=O)c3ccc(OC(F)(F)F)cc3)cc2c(=O)n1C1CCC(=O)NC1=O` (stereo not shown) [N-[3-(2,6-dioxo-piperidin-3-yl)-2-methyl-4-oxo-3,4-dihydro-quinazolin-6-ylmethyl]-4-trifluoromethoxy-benzamide], the melting point was 165 to 167 °C and the IC50 [1] was 0.01 to 5.5 µM.
Compound `O=C1CCC(n2cnc3ccc(Cl)cc3c2=O)C(=O)N1` (stereo not shown) [Example 5.7, 3-(6-chloro-4-oxo-4H-quinazolin-3-yl)-piperidine-2,6-dione] has a melting point of 302 to 305 °C.
With `Cc1nc2c(O)cccc2c(=O)n1C1CCC(=O)NC1=O` (stereo not shown) [3-(8-hydroxy-2-methyl-4-oxo-4H-quinazolin-3-yl)-piperidine-2,6-dione] the melting point was 266 to 268 °C.
Work on `Cc1nc2ccc(CNC(=O)c3ccc(Cl)cc3)cc2c(=O)n1C1CCC(=O)NC1=O` (stereo not shown) [4-chloro-N-[3-(2,6-dioxo-piperidin-3-yl)-2-methyl-4-oxo-3,4-dihydro-quinazolin-6-ylmethyl]-benzamide] yielded a melting point of 267 to 269 °C.
Work on `CCCCCCC(=O)NCc1ccc2nc(C)n(C3CCC(=O)NC3=O)c(=O)c2c1` (stereo not shown) [heptanoic acid [3-(2,6-dioxo-piperidin-3-yl)-2-methyl-4-oxo-3,4-dihydro-quinazolin-6-ylmethyl]-amide] yielded a melting point of 223 to 225 °C and an IC50 [1] of 0.01 to 5.5 µM.
